In patent publication US11773108B2, “Indene derivatives useful in treating pain and inflammation” (TARO PHARMACEUTICALS INC., priority 2018, dated 2023):

Assay: Metabolism by human liver microsomes
Format: in vitro ADME
Details: 10 μM, in the presence of NADPH; for Scoring: % of drug remaining after 60 minutes (PDR60): human liver microsomes 1 mg/mL protein, LC-MS/MS
Method: Representative compounds of the invention (i.e., test compounds) and the positive control, 7-ethoxycoumarin, were prepared as stock solutions at 10 mM in DMSO and eventually diluted to 10 μM in the test plate, with an appropriate amount of acetonitrile and tris HCl buffer. Final DMSO and acetonitrile concentrations were […] and 0.5% respectively. NADPH was prepared in tris HCl buffer to a stock of 10 mM. A frozen aliquot of liver microsomes was retrieved from the freezer (−80° C.) and thawed by placing the tube on wet ice. After thawing, the tubes were gently mixed and the required amount, transferred to tris HCl buffer. Test compounds or positive control were pre-incubated, separately, for 10 minutes, with liver microsomes (1 mg/mL protein), at 37° C., in 100 mM Tris HCl at pH 7.5. After preincubation the reaction was started by adding 1 mM NADPH (pre-equilibrated to 30° C.) and the reaction allowed to proceed for 60 minutes. At 60 minutes, a 50 μL aliquot was removed and quenched with 200 uL of acetonitrile containing a mixture of internal standards (Tolbutamide (500 ng/mL) and Telmistartan (500 ng/mL)) and vortexed then centrifuged at 4000 rpm for 10 minutes (Eppendorf 5810R). The supernatant was transferred to a 96 well plate for LC-MS/MS analysis.
An LC-MS/MS method was devised for the test compounds and the control, using a AB Sciex API 4000 system coupled to a NEXAR™ UHPLC (Shimadzu) system. Analytes were separated on a Phenomenex Kinetex C18 column (50×2.1 mm, 5 μm) using a gradient that was appropriate for each compound, at a flow rate of 1 ml/minute, utilizing a mobile phase of 0.1% formic acid in MILLI-Q™ water (A) and 0.1% formic acid in acetonitrile (B). The MS instrument was operated in positive mode (ESI+)/negative (ESI−). The multiple reaction monitoring (MRM) transition for test and control compounds was used for the LC-MS/MS analysis. MRM transitions for control compound 7-ethoxycoumarinm were Quadropole 1: 191.0, Quadropole 3:163.0, dwell time: 75 msec, using curtain gas settings of 5 V, ion-spray voltage of 5500 V, temperature of 50° C. and gas settings for nebulizer and auxiliary set to 30 and 40 psi, respectively. The interface heater was kept on. Entrance potential and collision cell exit potential were varied to tune for a specific compound.
Using a suitable LC-MS/MS method, the percentage of drug remaining at 60 minutes ([…]) was assessed by comparing the average analyte to internal standard area ratio at 60 minutes to the average analyte to internal standard area ratio at 0 time control, as a percentage, from a 5 to 10 μL sample injection.
According to the above assay, the test compounds listed in Table 7 below were active in the Human liver microsome assay at 10 μM and the % of drug remaining after 60 minutes (PDR60), in the presence of NADPH, was assessed by LC-MS/MS. Average PDR60 for the standard compound, 7-ethoxycoumarin was <=65% in the presence of NADPH. Scoring for the test compounds, in the presence of NADPH, was as follows: “A” represents a PDR60 of 81 to 100%, “B” represents a PDR60 of 61 to 80%, “C” represents a PDR60 of 31 to 60% and “D” represents a PDR60 of 0 to 30%.

C=C1CC[C@H]2[C@H](CN)[C@@H]([C@@]3(C)Cc4cnn(-c5ccc(OC)cc5)c4C[C@@H]3CO)CC[C@]12C [Ia-14, ((5R,6S)-5-((3aS,4R,5S,7aS)-4-(aminomethyl)-7a-methyl-1-methyleneoctahydro-1H-inden-5-yl)-1-(4-methoxyphenyl)-5-methyl-4,5,6,7-tetrahydro-1H-indazol-6-yl)methanol]
Scoring: % of drug remaining after 60 minutes (PDR60): D (“D” represents a PDR60 of 0 to 30%)

C=C1CC[C@H]2[C@H](CN)[C@@H]([C@@]3(C)Cc4cn(-c5ccc(Oc6ccc(F)cc6)cc5)nc4C[C@@H]3CO)CC[C@]12C [Ia-25, ((5R,6S)-5-((3aS,4R,5S,7aS)-4-(aminomethyl)-7a-methyl-1-methyleneoctahydro-1H-inden-5-yl)-2-(4-(4-fluorophenoxy)phenyl)-5-methyl-4,5,6,7-tetrahydro-2H-indazol-6-yl)methanol]
Scoring: % of drug remaining after 60 minutes (PDR60): B (“B” represents a PDR60 of 61 to 80%)

C[C@]1([C@H]2CC[C@]3(C)c4[nH]ncc4C[C@H]3[C@@H]2CN)Cc2cn[nH]c2C[C@@H]1CO [Ia-7, ((5R,6S)-5-((4aS,5R,6S,8aS)-5-(aminomethyl)-8a-methyl-1,4,4a,5,6,7,8,8a-octahydroindeno[1,2-c]pyrazol-6-yl)-5-methyl-4,5,6,7-tetrahydro-1H-indazol-6-yl)methanol]
Scoring: % of drug remaining after 60 minutes (PDR60): B (“B” represents a PDR60 of 61 to 80%)

C=C1CC[C@H]2[C@H](CN)[C@@H]([C@@]3(C)Cc4cn(Cc5ccc(OC)cc5)nc4C[C@@H]3CO)CC[C@]12C [Ia-17, ((5R,6S)-5-((3aS,4R,5S,7aS)-4-(aminomethyl)-7a-methyl-1-methyleneoctahydro-1H-inden-5-yl)-2-(4-methoxybenzyl)-5-methyl-4,5,6,7-tetrahydro-2H-indazol-6-yl)methanol]
Scoring: % of drug remaining after 60 minutes (PDR60): C (“C” represents a PDR60 of 31 to 60%)

C=C1CC[C@H]2[C@H](CN)[C@@H]([C@@]3(C)Cc4cn(Cc5ccc(F)cc5)nc4C[C@@H]3CO)CC[C@]12C [Ia-19, ((5R,6S)-5-((3aS,4R,5S,7aS)-4-(aminomethyl)-7a-methyl-1-methyleneoctahydro-1H-inden-5-yl)-2-(4-fluorobenzyl)-5-methyl-4,5,6,7-tetrahydro-2H-indazol-6-yl)methanol]
Scoring: % of drug remaining after 60 minutes (PDR60): B (“B” represents a PDR60 of 61 to 80%)

C[C@]1([C@H]2CC[C@]3(C)C(c4ccccc4)=CC[C@H]3[C@@H]2CN)Cc2cn[nH]c2C[C@@H]1CO [Ia-6, ((5R,6S)-5-((3aS,6S,7R,7aS)-7-(aminomethyl)-3a-methyl-3-phenyl-3a,4,5,6,7,7a-hexahydro-1H-inden-6-yl)-5-methyl-4,5,6,7-tetrahydro-1H-indazol-6-yl)methanol]
Scoring: % of drug remaining after 60 minutes (PDR60): A (“A” represents a PDR60 of 81 to 100%)

CCOc1ccc2ccc(=O)oc2c1 [7-ethoxycoumarin, reference compound]
Average PDR60 (standard compound, human liver microsomes, 60 minutes): <= 65%

C=C1CC[C@H]2[C@H](CN)[C@@H]([C@@]3(C)Cc4cn(-c5ccc(F)cc5)nc4C[C@@H]3CO)CC[C@]12C [Ia-13, ((5R,6S)-5-((3aS,4R,5S,7aS)-4-(aminomethyl)-7a-methyl-1-methyleneoctahydro-1H-inden-5-yl)-2-(4-fluorophenyl)-5-methyl-4,5,6,7-tetrahydro-2H-indazol-6-yl)methanol]
Scoring: % of drug remaining after 60 minutes (PDR60): A (“A” represents a PDR60 of 81 to 100%)

C=C1CC[C@H]2[C@H](CN)[C@@H]([C@@]3(C)Cc4cnn(-c5ccc(F)cc5F)c4C[C@@H]3CO)CC[C@]12C [Ia-34, ((5R,6S)-5-((3aS,4R,5S,7aS)-4-(aminomethyl)-7a-methyl-1-methyleneoctahydro-1H-inden-5-yl)-1-(2,4-difluorophenyl)-5-methyl-4,5,6,7-tetrahydro-1H-indazol-6-yl)methanol]
Scoring: % of drug remaining after 60 minutes (PDR60): D (“D” represents a PDR60 of 0 to 30%)

C=C1CC[C@H]2[C@H](CN)[C@@H]([C@@]3(C)Cc4cnn(-c5ccc(F)cn5)c4C[C@@H]3CO)CC[C@]12C [Ia-30, ((5R,6S)-5-((3aS,4R,5S,7aS)-4-(aminomethyl)-7a-methyl-1-methyleneoctahydro-1H-inden-5-yl)-1-(5-fluoropyridin-2-yl)-5-methyl-4,5,6,7-tetrahydro-1H-indazol-6-yl)methanol]
Scoring: % of drug remaining after 60 minutes (PDR60): D (“D” represents a PDR60 of 0 to 30%)

COc1ccc(-n2ncc3c2C[C@H](CO)[C@@](C)([C@H]2CC[C@]4(C)[C@@H](C)CC[C@H]4[C@@H]2CN)C3)cc1 [Ia-49, ((5R,6S)-5-((1S,3aS,4S,5S,7aR)-4-(aminomethyl)-1,7a-dimethyloctahydro-1H-inden-5-yl)-1-(4-methoxyphenyl)-5-methyl-4,5,6,7-tetrahydro-1H-indazol-6-yl)methanol]
Scoring: % of drug remaining after 60 minutes (PDR60): D (“D” represents a PDR60 of 0 to 30%)

C=C1CC[C@H]2[C@H](CN)[C@@H]([C@@]3(C)Cc4cnn(-c5ccccc5F)c4C[C@@H]3CO)CC[C@]12C [Ia-32, ((5R,6S)-5-((3aS,4R,5S,7aS)-4-(aminomethyl)-7a-methyl-1-methyleneoctahydro-1H-inden-5-yl)-1-(2-fluorophenyl)-5-methyl-4,5,6,7-tetrahydro-1H-indazol-6-yl)methanol]
Scoring: % of drug remaining after 60 minutes (PDR60): D (“D” represents a PDR60 of 0 to 30%)

C=C1CC[C@H]2[C@H](CN)[C@@H]([C@@]3(C)Cc4cn(C5CCC(F)(F)CC5)nc4C[C@@H]3CO)CC[C@]12C [Ia-39, ((5R,6S)-5-((3aS,4R,5S,7aS)-4-(aminomethyl)-7a-methyl-1-methyleneoctahydro-1H-inden-5-yl)-2-(4,4-difluorocyclohexyl)-5-methyl-4,5,6,7-tetrahydro-2H-indazol-6-yl)methanol]
Scoring: % of drug remaining after 60 minutes (PDR60): A (“A” represents a PDR60 of 81 to 100%)

C=C1CC[C@H]2[C@H](CN)[C@@H]([C@@]3(C)Cc4cnn(-c5cccc(F)c5)c4C[C@@H]3CO)CC[C@]12C [Ia-40, ((5R,6S)-5-((3aS,4R,5S,7aS)-4-(aminomethyl)-7a-methyl-1-methyleneoctahydro-1H-inden-5-yl)-1-(3-fluorophenyl)-5-methyl-4,5,6,7-tetrahydro-1H-indazol-6-yl)methanol]
Scoring: % of drug remaining after 60 minutes (PDR60): D (“D” represents a PDR60 of 0 to 30%)

C=C1CC[C@H]2[C@H](CN)[C@@H]([C@@]3(C)Cc4cn(-c5ccc(F)c(F)c5)nc4C[C@@H]3CO)CC[C@]12C [Ia-23, ((5R,6S)-5-((3aS,4R,5S,7aS)-4-(aminomethyl)-7a-methyl-1-methyleneoctahydro-1H-inden-5-yl)-2-(3,4-difluorophenyl)-5-methyl-4,5,6,7-tetrahydro-2H-indazol-6-yl)methanol]
Scoring: % of drug remaining after 60 minutes (PDR60): C (“C” represents a PDR60 of 31 to 60%)
